SMILES strings stand for the structures.

One experiment deals with aged Fisher rats. In words: Vascular stiffness by pulse wave velocity (PWV) in Fisher rats. Type of experiment: in vivo, rat. How it is done: When the heart contracts it generates a pulse, or energy wave, that travels through the circulatory system. […] PWV was determined in aged (22-26 months) Fisher rats, treated with ABH as described in Example 1. […] PWV was measured before and after 28 days of treatment with ABH (6 mg/kg) (See FIG. 5A). ABH improved vascular function in aortic rings tested in organ chambers (See FIG. 5B), while an endothelial-independent NO donor, SNP had no effect (C). *p<0.01 vs. young and #p<0.05 vs. old pre-treated, (n=3-8). […] This affect was not observed in untreated aged rats. There was a small but statistically significant increase in vascular stiffness in young control rats over the 28 days of the experiment. This change however was not observed in rats that were treated with ABH.

The test system of experiment [1] is diabetic ZDF rats. In words: Oral ABH in type 2 diabetic ZDF rats: vascular and erectile function (Example 7). In kind it is in vivo, rat. The text has this: The effects of ABH in the ZDF rat model of type 2 diabetes after systemic in vivo administration is investigated as described below. […] Given the similarities in indicators of vascular dysfunction between aged rats and diabetic animals and humans with respect to elevated arginase and decreased NO the prediction is that orally-administered ABH will result in similar improvements in vascular and erectile function in the type 2 diabetic ZDF rats. […] ABH is hypothesized to inhibit pathologically elevated vascular arginase, restore normal eNOS coupling, and enhance both erectile and vascular endothelial function. […]
ZDF rats are made diabetic by feeding a high-fat diet, while a cohort of ZLC rats are fed a normal diet. […] Aortic PWV is calculated as the separation distance divided by the difference in arrival times of the rat's pulse, with respect to the R-peak of the electrocardiogram (ECG), reported in meters per second (m/s).
At the end of the 4 week treatment period, erectile function is determined in vivo. […] Erectile response to electrical field stimulation (neurogenic response) is measured by catheterizing the right crus, and connecting it to a pressure transducer to permit continuous measurement of intracavernosal pressure (ICP). […] The erectile response (ICP) to injections of […] is determined. ICP is monitored during ACh administration, and until it returns to baseline. […]

Experiment [2] has as its system diabetic ZDF rats. In words: ABH plus PDE5 inhibitor in diabetic ZDF rats: erectile function and vasorelaxation (Example 8). Type of experiment: in vivo, rat. The settings on record: ABH alone.
Method: The effects of ABH and PDE5 inhibitors, singly and in combination, in the ZDF model of type 2 diabetes are tested.
ZLC rats are maintained on a normal diet. […] Ten to twenty minutes prior to each in vivo vasorelaxation experiment, animals will receive a single intravenous dose of the PDE5 inhibitor, sildenafil citrate (Viagra; either 1 or 2 mg/kg iv) or vehicle alone. […] Peak intracavernous pressure, ICP/mean arterial pressure (MAP), and total ICP (area under the erectile curve) are determined in response to intra-cavernous administration of the endothelium-dependent vasodilator ACh, and in response to direct cavernous nerve stimulation. Animals will then be euthanized, and aortas and penile vascular tissues are collected. Biochemical (arginase, NO, eNOS, ROS) and functional (contraction and relaxation in organ baths) indicators of endothelial health are determined in aortic rings and cavernous strips.
Another experiment has as its system old rat aorta. Put plainly: ROS production in aortic rings (DHE fluorescence). Type of experiment: cell-based. The settings on record: aged rat aortas. The text has this: ABH improves endothelial function by inhibiting arginase and consequently increasing NO production (by increasing L-arginine availability to eNOS) and decreasing levels of ROS (by preventing eNOS uncoupling). […] Aortic rings were dissected and pinned down, endothelial side up, on a silastic coated culture dish, and then exposed to either the NO-sensitive dye DAF, or the O2-sensitive dye DHE. Since the interaction of NO or ROS with its specific dye is cumulative, the rate of production of each species is proportional to the slope of the fluorescence emitted from the dye as measured using epifluorescence microscopy. […] SNP endothelial-independent NO donor was included as a control (Santhanam et al 2007).
This supports the hypothesis that arginase inhibition results in increased vascular NO production. A corollary of this effect is a decrease in ROS production by re-coupling eNOS to NO production. […] This resulted from deranged NOS activity (uncoupled NOS), since ROS levels could be reduced using the NOS-inhibitor nitro-L-arginine methyl ester (FIG. 6C). […] Similar techniques are used to examine whether ABH can restore NO production and decrease ROS production in vascular endothelial cells and corporal tissue from type 2 diabetic rats.

Regarding `N[C@@H](CCCCB(O)O)C(=O)O` [ABH, 2(S)-Amino-6-boronohexanoic acid], in the experiment on aged Fisher rats (aged (22-26 months) rats, ABH 6 mg/kg 28 days), the “vascular stiffness (pulse wave velocity, PWV)” value is reported as “marked decrease in vascular stiffness”. Also, the “increase in vascular stiffness over the 28 days of the experiment” value with aged Fisher rats (young rats, ABH treated vs young control rats) was “not observed”. For the same molecule, in the experiment on diabetic ZDF rats [1] (ABH orally four weeks, vs untreated diabetic ZDF rats), the “vascular arginase activity and vascular ROS concentration” value is on record as “significant decreases”. In addition, in the experiment with diabetic ZDF rats [1] (ABH orally in drinking water four weeks, vs untreated ZDF rats), the “in vivo erectile function, pulse wave velocity and ex vivo vasorelaxation” value is “significant improvements”. In addition, the erectile function entry in the experiment with diabetic ZDF rats [2] is “some positive effects”. In the experiment on old rat aorta, the ROS production entry was “significantly reduced”.
